Experiments:
[1] = test system: Group A herpesvirus CFS (EBV, HCMV, HHV6); test: Example 4: Energy Index Point Score (EIPS) in Group A herpesvirus CFS patients on antiviral nucleosides; type: in vivo, human
Source text: Background and Patient Population The international criteria for diagnosis of CFS was used. With strict confidentiality clinical files of CFS patients were identified by number only. A blinded code was maintained. Data were entered to the Axel computer system and analyzed anonymously. Patients with active EBV infection were identified by the presence of elevated serum ELISA antibodies to Epstein-Barr virus (EBV) IgM viral capsid antigen p18 peptide (Diasorin Inc., Stillwater, Minn.) and/or EBV, Early antigen (diffuse) 47 KD recombinant peptide (Diasorin, Stillwater, Minn.). Patients with active HCMV infection were identified by the presence of HCMV strain AD69 human fibroblast lysate, IgM and IgG ELISA and Copalis light-scatter, HCMV IgM p52 recombinant protein, UL44 and HCMV CM2, UL44 and part UL57 recombinant protein. Elevated IgM and IgG Human Herpesvirus 6 serum antibody titers ≧160 (LabCorp, Dublin, Ohio) were recorded. CFS patients had 24-Hr ECG Holter monitor recordings. When abnormal resting standard ECG and abnormal recurrent oscillating T-waves (flat, inverted) were present at baseline, radionuclide ventriculography by bicycle protocol stress studies were performed. The CFS patients reported here are termed Group A. They had negative IgM, IgG serum antibody titers to Borrelia burgdorferi, Western blot and ELISA; anti-streptolysin 0 titers <200 units; and negative serum IgM and IgG antibody titers to both Ehrlichia chaffeensis and Babesia microti (LabCorp).
Measurement of Degree of Fatigue (Physical Capacity) The Energy Index Point Score (EIPS) is a reliable validated metric assessing the degree of illness of CFS patients. With an EIPS scoring scale for reference on the wall in each examining room, the EIPS was determined by consensus of physician and patient. An EIPS of “0” is a bedridden patient. Patients were seen every 4-6 weeks and EIPS recorded. If an intercurrent illness was present EIPS determinations were delayed for 2 weeks. An EIPS of between 0 and 5 is associated with the presence of CFS. At an EIPS of between 6 and 10, the patient no longer meets criteria for diagnosis of CFS. A change in EIPS of 0.25 is small, a 0.5 change in EIPS is a medium change, and an EIPS change of ≧0.8 is a large effect size (p<0.05).
Valacyclovir and Famciclovir Administration to CFS patients with EBV infection Valacyclovir and famciclovir are pro-drugs well absorbed orally and, after reaching the circulation as acyclovir or penciclovir, respectively, inhibit EBV thymidine kinase efficiently. […]. Here, valacyclovir was the agent of first choice, but when diarrheas to valacyclovir developed, famciclovir was substituted. […]. If the patient weighed over 79.5 Kg, 1500 mg valacyclovir was given at each dose. Valacyclovir is excreted by the kidney by both glomerular filtration and tubular secretion. Valacyclovir renal calculi may result, and patients were advised to drink at least 1500 ml water daily. […]. Valacyclovir, once absorbed orally, is acyclovir in serum.
CFS patients were given valganciclovir. Cautiously beginning, 450 mg daily was administered every morning after a meal for three days, and then increasing dosage to two doses of 450 mg, every morning for three days. They were then given two doses of 450 mg valganciclovir every morning followed by one 12 hours later as a continuing dosage. […] If the patient weighed over 90.0 Kg, 900 mg valganciclovir every 12 hours was given. Dosage was evaluated every 2-6 weeks for ongoing tolerance with normal values of hemograms, platelets and amino transferases and creatinines.

[2] = parameters: species or system human; details: in vivo
Description: Toxicity of Antiviral Nucleosides Patients were seen every 4 to 6 weeks, EIPS was recorded and complete blood count, aminotransferases, creatinine and urinalyses were done. Also recorded were abnormalities in white blood cells and platelet counts, aminotransferases, weight gain or loss, whether famciclovir was substituted for valacyclovir, dosage change for valganciclovir, valacyclovir, or famciclovir, and whether any of the following occurred: participation in blinded-placebo-controlled study, hospitalization, surgery, recovery, a cessation of medicines by patient choice, cessation of medicines by physician choice, relapse with worsening EIPS and returned for care.

HCMV [3] = details: cited from earlier work
HHV6 [4] = details: cited from earlier work
HCMV [5] = details: versus HCMV; read-out: 50% inhibitory concentration; cited from earlier work
[6] = high dose repetitive human studies; cited from earlier work
HCMV-EBV subset CFS = test: Example 1: subset directed antiviral therapy of HCMV-EBV CFS patients; type: in vivo, human; details: for clinical outcome: 10 CFS patients, treated according to subset for mean 2.6±0.4 years; for side effects: mean 2.6±0.4 years treatment
Description: Ten patients with chronic fatigue syndrome (CFS) of 1.3-2.6 years duration had elevated serum antibody titers to cytomegalovirus (HCMV), and 9 of these patients also had elevated serum antibody titers to Epstein-Barr virus (EBV). They were classified: HCMV-EBV subset (nine patients) and HCMV subset (one patient) CFS. We determined whether subset classification is required for successful antiviral therapy of CFS.
CFS patients with elevated serum antibody titers to HCMV and EBV were treated with valganciclovir (HCMV) and valacyclovir (EBV) according to subset classification for a mean of 2.6±0.4 years. […] Five patients continue no antiviral drug, and five patients require continuing antiviral suppressive therapy. […] Subset directed antiviral therapy leads to sustained recovery in CFS patients.

EBV CFS subset = test: Example 3: valacyclovir in EBV subset CFS, placebo-controlled trial and 36 month follow-up; type: in vivo, human
Description: We used subset classification of Epstein-Barr virus (EBV) in chronic fatigue (CFS). We (1) performed (Group 1) a blinded-random placebo-controlled trial of valacyclovir in EBV CFS subset, and (2) followed (Group 2) this EBV subset for thirty-six months. Patients were given valacyclovir 14.3 mg per kg every 6 hours. The validated Energy Index point score (EI) assessing physical functional capacity, Holter monitor, multigated (radionuclide) MUGA rest/stress ventriculographic examination, EBV serum IgM viral capsid antibodies (VCA), and EBV Early Antigen diffuse, (EA) were evaluated.

EBV [7] = details: cited from earlier work
[8] = cited from earlier work
EBV [9] = test: simultaneous tests, activity versus EBV compared to HCMV; type: cell-based, Epstein-Barr virus
Source text: Therefore, valganciclovir was employed in CFS associated with HCMV or HHV6. Valganciclovir is efficiently absorbed as ganciclovir. It […] to human bone marrow progenitor cells and lymphocyte blastogenesis at this dosage. […] Food increases the bioavailability of both valacyclovir and valganciclovir.

HCMV [10] = details: cited from earlier work; remark: listed apart in the source
HHV6 [11] = details: cited from earlier work; remark: listed apart in the source
[12] = test system: human bone marrow progenitor cells and lymphocyte blastogenesis; details: at this dosage; cited from earlier work
[13] = EBV single-virus subset (31 pts)
[14] = Group 2, thirty-six month follow-up
[15] = 1 gm doses every 6 hours, 70 kg patients

CC(=O)OCC(CCn1cnc2cnc(N)nc21)COC(C)=O [famciclovir]
EIPS Change [1, 13]: +2
toxicity [2]: no toxicity
effective therapeutic agent for HCMV (HCMV [3]): not effective therapeutic agents
effective therapeutic agent for HHV6 (HHV6 [4]): not effective therapeutic agents

Nc1nc(O)c2ncn(COC(CO)CO)c2n1 [ganciclovir]
IC50 (HCMV [5]): 530 ± 40 nM

CC(C)Nc1nc2cc(Cl)c(Cl)cc2n1[C@H]1O[C@@H](CO)[C@H](O)[C@@H]1O [maribavir, 1H-β-L-ribofuranoside-2-isopropylamino-5,6-dichlorobenzimidazole]
IC50 (HCMV [5]): 120 ± 10 nM
side effects [6]: changes in taste and headache

CC(C)[C@H](N)C(=O)OCCOCn1cnc2c(=O)[nH]c(N)nc21 [valacyclovir]
clinical outcome (HCMV-EBV subset CFS): returned to health and remain well
side effects (HCMV-EBV subset CFS): No significant side effects
increase in energy expenditure corresponding to EI change (EBV CFS subset; Group 1, after six months): 122 kcal/day
increase in mean least square EI Point Score (EBV CFS subset; Group 1, after six months, 14.3 mg per kg every 6 hours): +1.12 units
EI Point Scores (EBV CFS subset; [14]): increased progressively
abnormal cardiac wall motion (EBV CFS subset; [14]): improved
serum antibody titers to EBV VCA IgM (EBV CFS subset; [14]): decreased
sinus tachycardias (EBV CFS subset; [14]): decreased
EIPS Change [1, 13]: +2
toxicity [2]: no toxicity
minimum inhibitor concentration (MIC) (EBV [7]): 1.5 to 3.0 µg/mL
peak acyclovir levels [8, 15]: 7.9 to 21 µg/mL
time of peak acyclovir levels [8, 15]: 90 to 120 min
effective therapeutic agent for HCMV (HCMV [3]): not an effective therapeutic antiviral agent
effective therapeutic agent for HHV6 (HHV6 [4]): not an effective therapeutic antiviral agent

CC(C)[C@H](N)C(=O)OCC(CO)OCn1cnc2c(=O)nc(N)[nH]c21 (some centres unmarked) [valganciclovir]
activity versus EBV as compared to HCMV (EBV [9]): one-tenth as active
clinical outcome (HCMV-EBV subset CFS): returned to health and remain well
side effects (HCMV-EBV subset CFS): No significant side effects
EIPS Change ([1]; EBV/HCMV subset (38 pts)): +1.8
EIPS Change ([1]; EBV/HHV6 subset (14 pts)): +2.0
EIPS Change ([1]; HCMV single-virus subset (15 pts)): +1.5
EIPS Change ([1]; HCMV/HHV6 subset (7 pts)): +1.7
EIPS Change ([1]; HHV6 single-virus subset (2 pts)): +2.7
aminotransferases [2]: increases in aminotransferases were observed
changes in hemoglobin or platelet levels [2]: no changes
MIC (HCMV [10]): 0.15 to 0.3 µg/mL
MIC (HHV6 [11]): 0.15 to 0.3 µg/mL
average peak concentrations (Cmax) ([8]; after 0.5-1.0 gm doses): 6100 ng/mL
effective therapeutic agent for HCMV (HCMV [3]): not effective therapeutic agents
effective therapeutic agent for HHV6 (HHV6 [4]): not effective therapeutic agents
effect on human bone marrow progenitor cells and lymphocyte blastogenesis [12]: inhibitory
